IC50 data for one molecule are collected here from BindingDB's records for doi:10.1021/acsmedchemlett.1c00211 (Biogen, 2021).

One may read the IC50 as the point on the concentration scale where inhibition reaches its midpoint.

The target in assay [1] is Autotaxin (ENPP2) (Homo sapiens) (UniProt Q13822). Briefly: Inhibition of LPA in human plasma after 18 hrs by LC-MS/MS analysis.
Assay [2] has as its target Autotaxin (ENPP2) (Rattus norvegicus) (UniProt Q64610). The assay is described as follows: Inhibition of LPA in rat plasma after 18 hrs by LC-MS/MS analysis.

As to `C[C@@H](c1ccc2ccc(O[C@H]3CC[C@@H](C(F)(F)F)CC3)c(C(F)(F)F)c2c1)N1C2CCC1CC(C(=O)O)C2` (some centres not stated), the IC50 in assay [1] was determined as 53 nM; in assay [2] it was 47 nM.
